Legend:
[1] = target: T1, wild-type nAChR α7 receptors (Homo sapiens, UniProt P36544); experiment: Positive modulation of acetylcholine-induced currents, two-electrode voltage clamp in Xenopus oocytes; format: cell-based; conditions: for maximal modulation of the acetylcholine (control) response (Imax) / EC50: 100 μM acetylcholine, nAChR α7 expressed in Xenopus laevis oocytes; for maximal modulation of the acetylcholine (control) response (Imax): (test-control)/control×100%; for EC50: clamped at −60 mV, compound 0.01-31.6 μM, read-out: EC50 for positive modulation of acetylcholine responses; for effect on acetylcholine-induced current amplitude: 0.01-31.6 μM compound applied 30 s before and during 100 μM acetylcholine application
T1 construct: expressed in transfected cells; host or cells: Xenopus laevis oocytes
T1 sequence (P36544 23-502): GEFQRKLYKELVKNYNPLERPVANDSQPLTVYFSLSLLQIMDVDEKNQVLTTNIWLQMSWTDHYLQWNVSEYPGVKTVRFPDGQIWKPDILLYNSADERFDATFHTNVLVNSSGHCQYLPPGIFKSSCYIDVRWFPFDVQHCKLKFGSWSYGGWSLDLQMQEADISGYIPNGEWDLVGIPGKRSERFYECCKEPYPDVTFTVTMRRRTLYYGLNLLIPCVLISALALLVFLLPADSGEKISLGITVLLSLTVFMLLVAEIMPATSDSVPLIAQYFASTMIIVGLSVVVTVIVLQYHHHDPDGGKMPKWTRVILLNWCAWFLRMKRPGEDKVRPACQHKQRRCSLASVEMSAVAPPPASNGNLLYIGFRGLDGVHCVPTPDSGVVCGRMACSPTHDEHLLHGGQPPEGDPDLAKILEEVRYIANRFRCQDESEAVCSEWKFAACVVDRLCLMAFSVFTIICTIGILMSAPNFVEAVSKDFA
Method: In this example the positive modulation of wild-type nAChR α7 receptors by Compound 1 (FIGS. 1A and 1B) and Compound 3 (FIGS. 2A and 2B) was determined using nAChR α7 receptors heterologously expressed in Xenopus laevis oocytes.
The electrical current through the nAChR α7 channel was measured using conventional two-electrode voltage clamp and nAChR α7 currents were activated by applying pulses of agonist-containing solution onto the nAChR α7 expressing oocyte. In brief, the oocytes were placed in a recording chambers and continuously superfused with an Oocyte Ringer (OR) solution containing 90 mM NaCl, 2.5 mM KCl, 2.5 mM CaCl2, 1 mM MgCl2 and 5 mM HEPES (pH adjusted to 7.4). The oocytes were clamped at −60 mV and currents were induced by applying 20 s pulses of 100 μM acetylcholine dissolved in OR. The intervals between the acetylcholine applications were 5 minutes, during which the oocytes were washed with OR. The first three applications were control applications to insure a constant response level of 100 μM acetylcholine.
The positive modulation in the presence of Compound 1 and Compound 3 was calculated as (test-control)/control×100% and the concentration response curve for this positive modulation was fitted to the sigmoidal logistic equation: I=Imax/(1+(EC50/[compound])^n), where Imax represents the maximal modulation of the control response, EC50 is the concentration causing a half maximal response, and n is the slope coefficient.

Row | Structure (SMILES) | melting point [°C] | other results
1 | Nc1c(-c2ccc(Cl)cc2)nnn1-c1ccc(C(F)(F)F)cc1F [Compound 18, 5-(4-Chloro-phenyl)-3-(2-fluoro-4-trifluoromethyl-phenyl)-3H-[1,2,3]triazol-4-ylamine] | 169.9 to 170.2 | 
2 | COc1ccc(-c2nnn(-c3ccc(C(F)(F)F)cc3Cl)c2N)cc1 [Compound 3, 3-(2-Chloro-4-trifluoromethyl-phenyl)-5-(4-methoxy-phenyl)-3H-[1,2,3]triazol-4-ylamine] | 130 to 130.7 | maximal modulation of the acetylcholine (control) response (Imax) [1]: 563%; EC50 [1]: 1.7 µM; effect on acetylcholine-induced current amplitude [1]: robust increase
3 | CC(=O)Nc1ccc(-c2nnn(-c3ccc(C(F)(F)F)cc3F)c2N)cc1 [Compound 11, N-{4-[5-Amino-1-(2-fluoro-4-trifluoromethyl-phenyl)-1H-[1,2,3]triazol-4-yl]-phenyl}-acetamide] | 114.8 to 116.2 | 
4 | Nc1c(-c2ccc(OC(F)(F)F)cc2)nnn1-c1ccc(C(F)(F)F)cc1F [Compound 19, 3-(2-Fluoro-4-trifluoromethyl-phenyl)-5-(4-trifluoromethoxy-phenyl)-3H-[1,2,3]triazol-4-ylamine] | 134.2 to 134.9 | 
5 | COc1ccc(-n2nnc(-c3ccc(F)cc3F)c2N)cc1 [Compound 24, 5-(2,4-Difluoro-phenyl)-3-(4-methoxy-phenyl)-3H-[1,2,3]triazol-4-ylamine] | 152 to 156.5 | 
6 | Nc1ccc(-c2nnn(-c3ccc(C(F)(F)F)cc3F)c2N)cc1 [Compound 12, 5-(4-Amino-phenyl)-3-(2-fluoro-4-trifluoromethyl-phenyl)-3H-[1,2,3]triazol-4-ylamine] | 163.6 to 165 | 
7 | COc1ccc(-c2nnn(-c3c(Cl)cc(Cl)cc3I)c2N)cc1 [Compound 22, 3-(2,4-Dichloro-6-iodo-phenyl)-5-(4-methoxy-phenyl)-3H-[1,2,3]triazol-4-ylamine] | 72.5 to 73.6 | 
8 | COc1ccc(-n2nnc(-c3ccc(Cl)c(Cl)c3)c2N)cc1 [Compound 26, 5-(3,4-Dichloro-phenyl)-3-(4-methoxy-phenyl)-3H-[1,2,3]triazol-4-ylamine] | 189.9 to 191.3 | 
9 | Nc1c(-c2cc(Cl)ccc2O)nnn1-c1ccc(Cl)cc1Cl [Compound 8, 2-[5-Amino-1-(2,4-dichloro-phenyl)-1H-[1,2,3]triazol-4-yl]-4-chloro-phenol] | 131.3 to 135.6 | 
10 | COc1ccc(-n2nnc(-c3ccc(Cl)cc3F)c2N)cc1 [Compound 27, 5-(4-Chloro-2-fluoro-phenyl)-3-(4-methoxy-phenyl)-3H-[1,2,3]triazol-4-ylamine] | 147.9 to 149.5 | 
11 | COc1ccc(-c2nnn(-c3cc(C)on3)c2N)cc1 [Compound 7, 5-(4-Methoxy-phenyl)-3-(5-methyl-isoxazol-3-yl)-3H-[1,2,3]triazol-4-yl amine] | 136.3 to 141.2 | 
12 | COc1ccc(-c2nnn(-c3ccc(F)cc3Cl)c2N)cc1 [Compound 5, 3-(2-Chloro-4-fluoro-phenyl)-5-(4-methoxy-phenyl)-3H-[1,2,3]triazol-4-ylamine] | 136.3 to 141.2 | 
13 | Nc1c(-c2cc(Cl)ccc2O)nnn1-c1ccc(C(F)(F)F)cc1Cl [Compound 9, 2-[5-Amino-1-(2-chloro-4-trifluoromethyl-phenyl)-1H-[1,2,3]triazol-4-yl]-4-chloro-phenol] | 74.5 to 77.5 | 
14 | Nc1c(-c2ccc(-c3nnco3)cc2)nnn1-c1ccc(C(F)(F)F)cc1F [Compound 10, 3-(2-Fluoro-4-trifluoromethyl-phenyl)-5-(4-[1,3,4]oxadiazol-2-yl-phenyl)-3H-[1,2,3]triazol-4-ylamine] | 184.6 to 186.1 | 
15 | Nc1c(-c2ccc(O)cc2)nnn1-c1ccc(C(F)(F)F)cc1F [Compound 15, 4-[5-Amino-1-(2-fluoro-4-trifluoromethyl-phenyl)-1H-[1,2,3]triazol-4-yl]-phenol] | 163.5 to 165.2 | 
16 | COc1ccc(Cl)cc1-c1nnn(-c2ccc(Cl)cc2Cl)c1N [Compound 4, 5-(5-Chloro-2-methoxy-phenyl)-3-(2,4-dichloro-phenyl)-3H-[1,2,3]triazol-4-ylamine] | 153.5 to 154.7 | 
17 | COc1ccc(-n2nnc(-c3ccc(Cl)cc3Cl)c2N)cc1 [Compound 6, 5-(2,4-Dichloro-phenyl)-3-(4-methoxy-phenyl)-3H-[1,2,3]triazol-4-ylamine] | 154.6 to 163.9 | 
18 | Nc1c(-c2ccc(C(F)(F)F)cc2F)nnn1-c1ccc(O)cc1 [Compound 17, 4-[5-Amino-4-(2-fluoro-4-trifluoromethyl-phenyl)-[1,2,3]triazol-1-yl]-phenol] | 176.2 to 177.5 | 
19 | COc1ccc(-n2nnc(-c3ccc(F)cc3Cl)c2N)cc1 [Compound 25, 5-(2-Chloro-4-fluoro-phenyl)-3-(4-methoxy-phenyl)-3H-[1,2,3]triazol-4-ylamine] | 175 to 176.8 | 
20 | COc1ccc(-n2nnc(-c3ccc(C(F)(F)F)cc3F)c2N)cc1 [Compound 16, 5-(2-Fluoro-4-trifluoromethyl-phenyl)-3-(4-methoxy-phenyl)-3H-[1,2,3]triazol-4-ylamine] | 164.6 to 165.5 | 
21 | COc1ccc(Cl)cc1-c1nnn(-c2ccc(C(F)(F)F)cc2Cl)c1N [Compound 2, 5-(5-Chloro-2-methoxy-phenyl)-3-(2-chloro-4-trifluoromethyl-phenyl)-3H-[1,2,3]triazol-4-ylamine] | 152.8 to 153.3 | 
22 | COc1ccc(-c2nnn(-c3ccc(Cl)cc3Cl)c2N)cc1 [Compound 1, 3-(2,4-Dichloro-phenyl)-5-(4-methoxy-phenyl)-3H-[1,2,3]triazol-4-ylamine] | 149.2 to 150.7 | maximal modulation of the acetylcholine (control) response (Imax) [1]: 561%; EC50 [1]: 4.9 µM; effect on acetylcholine-induced current amplitude [1]: robust increase
23 | COc1ccc(-n2nnc(-c3ccc(Cl)cc3C(F)(F)F)c2N)cc1 [Compound 23, 5-(4-Chloro-2-trifluoromethyl-phenyl)-3-(4-methoxy-phenyl)-3H-[1,2,3]triazol-4-ylamine] | 159.2 to 160.2 | 
24 | Nc1c(-c2ccc(C(F)(F)F)cc2F)nnn1-c1ccc(S(N)(=O)=O)cc1 [Compound 13, 4-[5-Amino-4-(2-fluoro-4-trifluoromethyl-phenyl)-[1,2,3]triazol-1-yl]-benzenesulfonamide] | 183.8 to 185.2 | 
25 | Nc1c(-c2ccc(O)cc2)nnn1-c1ccc(C(F)(F)F)cc1Cl [Compound 21, 4-[5-Amino-1-(2-chloro-4-trifluoromethyl-phenyl)-1H-[1,2,3]triazol-4-yl]-phenol] | 161 to 162.3 | 

Source: patent US8110588B2, “1,2,3-triazole derivatives useful as modulators of nicotinic acetylcholine receptors” (Neurosearch A/S, priority 2007, dated 2012)
